Test results published in patent publication US12544356B2, “Combination of a chromene compound and a second active agent” (EUCLISES PHARMACEUTICALS, INC., priority 2016, dated 2026).

Legend:
[1] = system: HT-29 xenograft colon carcinoma model; test: HT-29 xenograft tumor volume, Compound A01 vs celecoxib (Example 5); assay type: in vivo, CB17SCID mice; settings: 10 mg/kg oral daily
Protocol: (§1) HT-29 cells were prepared and implanted by standard methods using the same procedure as Example 1.
(§2) 42 CB17SCID mice were implanted with 2.5×10^6 HT-29 cells.
(§3) Mouse weight and tumor volume measurements were taken on days 0, 3, 6, 9, 12, 15, 18, 21, and 22 following randomization. After 22 days dosing, the blood from each animal was collected at 2 hours and 6 hours post dose.

[2] = system: CT26.WT murine colon carcinomas; test: CT26 tumor volume, Compound A01 vs celecoxib (Example 6); assay type: in vivo, Female Harlan Balb/c mice (BALB/cAnNHsd)
Protocol: (§4) CT26 murine colon carcinoma cells were prepared as in Example 2. Female Harlan Balb/c mice (BALB/cAnNHsd) were inoculated with 5×10^5 CT26 cells suspended in PBS (200 μL) subcutaneously high in the axilla (just under the fore limb). All mice were sorted into study groups based on caliper measurement estimation of tumor burden on Day 8 when the mean tumor burden for all animals was approximately 79 mm^3 (range of group means, 75-83 mm^3).

PGE-2 = test: Tumoral PGE-2 in HT-29 tumors (Example 5); assay type: in vivo, CB17SCID mice; settings: HT-29 tumor, day 24; 10 mg/kg
Protocol: as §1, §2, §3

prostaglandin E2 (PGE2) = test: CT26 tumoral PGE-2 (Example 6); assay type: in vivo, Female Harlan Balb/c mice (BALB/cAnNHsd); settings: 10 mg/kg (Group 8)
Protocol: as §4

[3] = Body weight in HT-29 xenograft study (Example 1); assay type: in vivo, CB17SCID male mice; settings: erlotinib 50 mg/kg oral daily
Protocol: (§5) 48 CB17SCID male mice were implanted with 2.5×10^6 HT29 cells. Growth of the tumor was calculated for each animal using a caliper and the equation: V=π×ab^2/6.
(§6) Mouse weight and tumor volume measurements were taken on days 0, 3, 6, 9, 12, 15, 18, 21, and 22 following randomization.

[4] = Intratumoral concentration of Compound A01 and erlotinib (Example 1); assay type: in vivo, CB17SCID male mice; settings: male, CB17SCID, mouse, tumor (HT-29 xenograft), oral, 50 mg/kg
Protocol: as §5, §6

PGE2 = test: Intratumoral concentration of PGE2 in HT-29 tumors (Example 1); assay type: in vivo, CB17SCID male mice; settings: HT-29 tumor, day 24; erlotinib 50 mg/kg
Protocol: as §5, §6

[5] = system: HT-29 xenograft murine colon carcinoma model; test: HT-29 xenograft tumor growth, Compound A01 with erlotinib (Example 1); assay type: in vivo, CB17SCID male mice; settings: for Tumor Volume: erlotinib 50 mg/kg oral daily
Protocol: HT-29 cells were cultured in medium for one week. Following digestion cells were centrifuged for 3-5 minutes at 800-1500 rpm. Cells were washed with PBS and centrifuged again under the same condition. Cells were then suspended in PBS to a final concentration of […]. 200 μL of the HT-29 cell suspension were subcutaneously injected into the mice left forelimb axillary (2.5×10^6 HT-29 cells per mouse).
as §5, §6

[6] = Plasma concentration of Compound A01 and erlotinib (Example 1); assay type: in vivo, CB17SCID male mice; settings: male, CB17SCID, mouse, plasma, oral, 50 mg/kg
Protocol: as §5, §6

Question: With Cc1ccc(-c2cc(C(F)(F)F)nn2-c2ccc(S(N)(=O)=O)cc2)cc1 [Celecoxib, celecoxib, reference compound] as the compound, how does the “Tumor Volume” value ([1]; Day 0) read?
Answer: Its value is 67.9 mm^3.

Question: What about the “Tumor Volume” value ([1]; Day 3) of the same compound?
Answer: The value was 81.8 mm^3.

Question: What about the “Tumor Volume” value ([1]; Day 6) of the same compound?
Answer: The value was 143.4 mm^3.

Question: What about the “Tumor Volume” value ([1]; Day 9) of the same compound?
Answer: The value was 244.5 mm^3.

Question: And the “Tumor Volume” value ([1]; Day 12)?
Answer: The value was 285.5 mm^3.

Question: What about the “Tumor Volume” value ([1]; Day 15) of the same compound?
Answer: Its value is 380.9 mm^3.

Question: What about the “Tumor Volume” value ([1]; Day 18) of the same compound?
Answer: The value was 541.2 mm^3.

Question: What about the “Tumor Volume” value ([1]; Day 21) of the same compound?
Answer: The value was 736.1 mm^3.

Question: What about the “Tumor Volume” value ([1]; Day 22) of the same compound?
Answer: The value was 803.4 mm^3.

Question: What about the “CT26 Tumor Volume” value ([2]; Day 8, 10 mg/kg) of the same compound?
Answer: Its value is 79 ± 4 mm^3.

Question: What about the “CT26 Tumor Volume” value ([2]; Day 8, 30 mg/kg) of the same compound?
Answer: The value was 76 ± 5 mm^3.

Question: And the “CT26 Tumor Volume” value ([2]; Day 10, 10 mg/kg)?
Answer: The value was 134 ± 11 mm^3.

Question: And the “CT26 Tumor Volume” value ([2]; Day 10, 30 mg/kg)?
Answer: Its value is 131 ± 17 mm^3.

Question: And the “CT26 Tumor Volume” value ([2]; Day 13, 10 mg/kg)?
Answer: The value was 369 ± 42 mm^3.

Question: What about the “CT26 Tumor Volume” value ([2]; Day 13, 30 mg/kg) of the same compound?
Answer: Its value is 415 ± 66 mm^3.

Question: And the “CT26 Tumor Volume” value ([2]; Day 15, 10 mg/kg)?
Answer: Its value is 594 ± 84 mm^3.

Question: What about the “CT26 Tumor Volume” value ([2]; Day 15, 30 mg/kg) of the same compound?
Answer: Its value is 685 ± 93 mm^3.

Question: What about the “CT26 Tumor Volume” value ([2]; Day 17, 10 mg/kg) of the same compound?
Answer: Its value is 904 ± 92 mm^3.

Question: And the “CT26 Tumor Volume” value ([2]; Day 17, 30 mg/kg)?
Answer: The value was 1046 ± 144 mm^3.

Question: What about the “Mean PGE-2 (tumoral)” value (PGE-2) of the same compound?
Answer: The value was 233.3 ± 267.2 ng/g.

Question: And the “Mean PGE-2 Concentration (CT26 tumoral)” value (prostaglandin E2 (PGE2))?
Answer: Its value is 1140 ng/g.

Question: Which Body weight ([3]; Day 0) does the source give for C#Cc1cccc(Nc2ncnc3cc(OCCOC)c(OCCOC)cc23)c1 [Erlotinib, erlotinib, reference compound] here?
Answer: Its Body weight is 22.4 g.

Question: And the Body weight ([3]; Day 3)?
Answer: Its Body weight is 22.4 g.

Question: What about the Body weight ([3]; Day 15) of the same compound?
Answer: Its Body weight is 20.5 g.

Question: And the Body weight ([3]; Day 21)?
Answer: Its Body weight is 21.0 g.

Question: And the concentration at 24 day [4]?
Answer: Its concentration at 24 day is less than 80000 ng/g.

Question: What about the “Intratumoral concentration of PGE2 (mean ± SD)” value (PGE2) of the same compound?
Answer: The value was 160.6 ± 89.5 µg/g.

Question: And the Tumor Volume ([5]; Day 0)?
Answer: Its Tumor Volume is 73.7 mm^3.

Question: What about the Tumor Volume ([5]; Day 3) of the same compound?
Answer: Its Tumor Volume is 156.9 mm^3.

Question: What about the Tumor Volume ([5]; Day 6) of the same compound?
Answer: The Tumor Volume was 192.0 mm^3.

Question: And the Tumor Volume ([5]; Day 9)?
Answer: The Tumor Volume was 241.0 mm^3.

Question: And the Tumor Volume ([5]; Day 12)?
Answer: The Tumor Volume was 299.1 mm^3.

Question: What about the Tumor Volume ([5]; Day 15) of the same compound?
Answer: The Tumor Volume was 394.5 mm^3.

Question: And the Tumor Volume ([5]; Day 18)?
Answer: Its Tumor Volume is 641.1 mm^3.

Question: What about the Tumor Volume ([5]; Day 21) of the same compound?
Answer: The Tumor Volume was 691.4 mm^3.

Question: And the Tumor Volume ([5]; Day 22)?
Answer: The Tumor Volume was 774.8 mm^3.

Question: And the “suppression of tumor growth compared to vehicle” value ([5]; erlotinib alone (50 mg/kg))?
Answer: Its value is 38%.

Question: What about the concentration at 2 h [6] of the same compound?
Answer: The concentration at 2 h was 3340 ± 1590 ng/mL.

Question: What about the concentration at 6 h [6] of the same compound?
Answer: Its concentration at 6 h is 1260 ± 520 ng/mL.
